Data as given in PMC3572853 (ACS medicinal chemistry letters, 2012).

Experiments:
PADs 1–4 = assay: kinact/KI determination with purified enzyme, all PADs tested; format: biochemical; conditions: for kinact/KI: for all of the PADs tested (PADs 1–4)
maximum tolerable dose = format: in vivo; conditions: mice, per os
MDA-MB-231 cells = assay: cell viability and cell number in MDA-MB-231 cells; format: cell-based; conditions: MDA-MB-231 cells, 100, 200 and 400 µM, 96 h after administration
caspase 3 activity = caspase 3 activity in MDA-MB-231 cells; conditions: MDA-MB-231 cells, 100, 200 and 400 µM, 96 h
Ki-67 = Ki-67 levels in MDA-MB-231 cells
PAD1 = biological target: T1, PAD1 (Homo sapiens, UniProt Q9ULC6); assay: kinact/KI determination with purified enzyme, PAD1; format: biochemical
T1 sequence (Q9ULC6 1-663): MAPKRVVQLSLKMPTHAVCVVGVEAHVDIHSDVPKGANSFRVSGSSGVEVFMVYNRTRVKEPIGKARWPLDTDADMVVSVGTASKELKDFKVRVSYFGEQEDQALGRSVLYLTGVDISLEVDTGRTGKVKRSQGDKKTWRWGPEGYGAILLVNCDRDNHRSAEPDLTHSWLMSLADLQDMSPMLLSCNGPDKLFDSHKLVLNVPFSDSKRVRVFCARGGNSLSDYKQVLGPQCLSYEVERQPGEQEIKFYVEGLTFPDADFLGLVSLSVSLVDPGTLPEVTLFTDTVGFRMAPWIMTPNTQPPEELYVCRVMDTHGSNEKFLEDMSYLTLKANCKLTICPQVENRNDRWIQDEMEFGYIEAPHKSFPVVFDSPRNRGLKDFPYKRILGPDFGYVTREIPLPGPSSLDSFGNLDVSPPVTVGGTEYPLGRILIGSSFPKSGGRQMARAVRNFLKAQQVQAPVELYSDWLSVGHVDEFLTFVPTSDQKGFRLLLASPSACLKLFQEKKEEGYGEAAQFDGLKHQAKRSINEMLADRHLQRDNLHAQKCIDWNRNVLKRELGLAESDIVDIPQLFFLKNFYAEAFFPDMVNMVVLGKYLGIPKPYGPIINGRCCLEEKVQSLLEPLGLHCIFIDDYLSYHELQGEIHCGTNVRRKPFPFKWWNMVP

[1] = tested on: collagen induced arthritis (CIA) model; conditions: cited from earlier work
[2] = mice, 100 mg/kg daily by i.p. for up to 56 days; cited from earlier work
[3] = pharmacokinetics in mice, IV and IP injection; format: in vivo; conditions: 10 mg/kg
[4] = tested on: mouse model of ulcerative colitis; conditions: cited from earlier work

kinact/KI (PADs 1–4) [M⁻¹ s⁻¹] | SMILES | cell number (MDA-MB-231 cells) | cell viability (MDA-MB-231 cells) | caspase 3 activity (caspase 3 activity) | Ki-67 levels (Ki-67) | other results
< 2.5 | N=C(CCl)NCC[C@@H](NC(=O)c1ccccc1)C(N)=O [D-Cl2-amidine] | – | – | – | – | –
< 2.5 | N=C(CCl)NCCCC[C@@H](NC(=O)c1ccccc1)C(N)=O [D-Cl4-amidine] | – | – | – | – | –
< 3.83 | N=C(CCl)NCCC[C@@H](NC(=O)c1ccccc1)C(=O)NCC(=O)O [D-Cl-amidine-Gly] | – | – | – | – | –
< 3.83 | N=C(CCl)NCCC[C@@H](NC(=O)c1ccccc1)C(=O)O [D-Cl-amidine-OH] | – | – | – | – | –
– | N=C(CCl)NCCC[C@@H](NC(=O)c1ccccc1)C(N)=O [D-Cl-amidine] | significantly decreased cell number at a concentration of 400 µM | significantly decreasing cell viability at concentrations of 200 and 400 µM | significant increase in activity at a concentration of 400 µM | no significant effect on Ki-67 levels | body weight change (maximum tolerable dose; varying doses up to 150 mg/kg): maintained healthy weight gains
– | N=C(CF)NCCC[C@@H](NC(=O)c1ccccc1)C(N)=O [D-F-amidine] | – | – | – | – | kinact/KI (PAD1): 20.3 M⁻¹ s⁻¹
– | N=C(CF)NCCC[C@@H](NC(=O)c1ccccc1C(=O)O)C(N)=O [D-o-F-amidine] | only a small decrease in cell number at a concentration of 400 µM | no effect on cell viability | did not result in an increase in caspase 3 activity | – | body weight change (maximum tolerable dose; varying doses up to 150 mg/kg): maintained healthy weight gains
– | N=C(CCl)NCCC[C@H](NC(=O)c1ccccc1)C(N)=O [L-Cl-amidine, N-α-Benzoyl-N5-(2-Chloro-1-Iminoethyl)-l-Ornithine Amide] | significantly decreased cell number at a concentration of 400 µM | significantly decreasing cell viability at concentrations of 200 and 400 µM | significant increase in activity at a concentration of 400 µM | no significant effect on Ki-67 levels | body weight change (maximum tolerable dose; 100 mg/kg (group 5), 4 days (96 h)): significant weight loss; body weight change (maximum tolerable dose; 150 mg/kg (group 6), 4 days (96 h)): significant weight loss; observable toxicity (maximum tolerable dose; group 6 (150 mg/kg)): notably shaking, anxious, hunching and breathing heavily from 1 to 4 h after treatment; disease severity [1]: reduces disease severity; signs of toxicity [2]: no observable signs of toxicity; time to complete degradation ([3]; IP): ≤ 4 h; time to complete degradation ([3]; IV): ≤ 2 h; disease severity [4]: reduces disease severity
– | N=C(CCl)NCCCC(NC(=O)c1ccccc1)C(=O)O [L-Cl-amidine-OH] | – | – | – | – | PAD inhibition in words (PADs 1–4; PADs 1–4): poor PAD inhibitor
– | CC(=O)N[C@H]1[C@@H](O[C@@H]2O[C@H](CC(O)[C@H]3O[C@@H](n4ccc(=O)[nH]c4=O)[C@H](O)[C@@H]3O)[C@H](O)[C@H](O)[C@H]2NC(=O)/C=C/CC(C)C)O[C@H](CO)[C@@H](N)[C@@H]1O (stereo partly shown) [tunicamycin] | – | – | – | a decrease in Ki-67 levels | –
